Entries after “also recorded” stand apart in the source; their conditions may differ.
Tests used:
[1] = observation of status and clinical manifestations of mice during multiple rounds of administration; assay type: in vivo, C57 mice; settings: for mice depilated, dispirited and in poor state: after 3 consecutive rounds
Method: (§1) B. The schematic diagram of the multiple dosing and the subsequent blood routine examinations in mice. The drug was administered on 3 consecutive days per week, followed by a 4-day interval, for 3 weeks continuous administration. The drug was administered by intraperitoneal injection in the afternoon on days 0, 1, 2, 7, 8, 9, 14, 15, and 16, and the blood was collected and tested in the morning on days 1, 3, 5, 8, 10, 12, 15, 17, and 19, respectively.
(§2) A single administration of A13 or A13bG was performed. Female 5-6 week old C57 mice were treated with a single intraperitoneal injection. A13 and A13bG were administered in three different dose groups of 2, 5, and 20 mg/kg. Approximately 50 μl of blood was collected from each mouse at different time points into the EDTA tubes (RAM Scientific) by means of inner canthal blood extraction, and analyzed using a haematology analyzer for a blood routine examination and a platelet counting. Multiple administrations of A13 or A13bG were performed. Female 5-6 week old C57 mice were treated with multiple intraperitoneal injections. A13 and A13bG were administered in three different dose groups of 2, 5 and 20 mg/kg, three consecutive days per week, followed by a 4-day withdrawal for 3 weeks. The time points of administration were in the afternoon of days 0, 1, 2, 7, 8, 9, 14, 15, and 16, and the time points of blood collection and testing were in the morning of days 1, 3, 5, 8, 10, 12, 15, 17, and 19, respectively.

[2] = system: platelets in peripheral blood; experiment: in vivo platelet toxicity test, multiple intraperitoneal injections; parameters: species or system C57 mice
Method: as §1
C. Results of the platelet counts in peripheral blood on days 1, 3, 5, 8, 10, 12, 15, 17, and 19 after multiple intraperitoneal injections of different doses of the given drug. Each dot in the panel represents the count of platelets detected in 1 mouse at that time point (n=4 mice); mpk represents the milligram dose per kilogram of the body weight, A13 represents the parent compound A1331852 administration group, and A13bGa1 represents the prodrug obtained after the β-gal modification of A13. The dashed line in the panel indicates the mean value of platelet counts in mice in the single vehicle administration control group.
(§3) In Vivo Platelet Toxicity Test
as §2
(§4) For a blood routine examination, 50 μl of fresh blood was collected from each mouse and immediately mixed with EDTA. Blood samples were analyzed by Celltac Alpha MEK-6400 series haematology analyzer (Nihon Kohden, MEK-6400). Data were expressed as the number of different blood cells or platelets per μl of blood. For the serum biochemical analysis, the blood samples were collected, coagulated for 2 hours at room temperature or overnight at 4 °C, and then centrifuged (1000 g, 10 minutes) to obtain serum. A 200 μl of serum was aliquoted and analyzed for alanine aminotransferase (ALT), aspartate aminotransferase (AST), uric acid (UA), and creatinine (CREA) by a chemistry analyzer (Mindray, BS-350E).

[3] = system: BJ cells (human skin fibroblast cell line); experiment: in vitro killing of induced senescent BJ cells (CCK-8); assay type: cell-based; settings: human skin-derived fibroblasts, FIG. 3D
Text: Induction of the Cellular Senescence

[4] = plasma metabolic stability, rat; assay type: in vitro ADME; settings: 120 min
Method: Plasma Metabolic Stability
Termination of the reaction was accomplished by the addition of 3× volume of acetonitrile and centrifugation at 16000 g for 20 minutes. The supernatant was taken for a LC-MS/MS analysis. The chromatographic column: Waters XSelect HSS T3; the flow rate: 500 μL/min; the eluent: A, water (0.1% formic acid); B, acetonitrile (0.1% formic acid); the gradient elution: 0-1.5 min, 5% B, 1.5-9 min, 5%-80% B, 9-12 min, 80%-100% B, 12-14 min, 100% B, 14-14.3 min, 100%-5% B, 14.3-15 min, 5% B.

[5] = liver microsomal metabolic stability, rat
Method: (§5) Hepatic Microsomal Metabolic Stability
(§6) A13bGa1 was co-incubated with the mouse, rat, canine, monkey and human […] and the incubation medium at a final drug concentration of 1 μM in the incubation system for 60 minutes. Samples were taken and analyzed at time points 0, 15, 30, 45 and 60 minutes during the incubation. The reaction was terminated by adding an amount of acetonitrile solution containing the internal standard. […] The residual percentage, half-life, intrinsic clearance, amplified clearance, hepatic clearance and hepatic extraction ratio were determined. The entire experiment was performed in triplicate. All data calculations were performed by Microsoft Excel software. Peak areas were detected by extracting the ionic spectrum. The in vitro half-life (t1/2) of the parent compound was detected by fitting the natural logarithm of the percentage elimination of the parent compound linearly to time.
(§7) The in vitro intrinsic clearance (in μL/min/mg protein) was calculated using the following equation: in vitro CLint=kV/N
(§8) The amplified clearance (in mL/min/kg) was calculated using the following equation: Amplified CLint=kV/N×the amplification factor
(§9) The hepatic clearance (in mL/min/kg) was calculated using the following equation: The predicted hepatic CLH=(Q×Fu/RB×the amplified CLint)/(Q+Fu/RB×the amplified CLint) • V=the incubation volume per well (0.2 mL); • N=the total amount of protein (mg) • Q=the hepatic blood flow (mL/min/kg) • Fu=the plasma free rate (assumed to be 1) • RB=the whole blood partition coefficient (assumed to be 1)
(§10) The hepatic uptake rate was calculated using the following equation:
(§11) The hepatic extraction ratio (ER)=(the predicted hepatic CLH)/Q

[6] = system: platelets in peripheral blood; experiment: in vivo platelet toxicity test, single intraperitoneal injection; parameters: species or system C57 mice; settings: FIG. 4A
Text: A. Results of the platelet counts in peripheral blood on days 1, 3, 5, 8, and 10 after a single intraperitoneal injection of different doses of the given drug. Each dot in the panel represents the count of platelets detected in 1 mouse at that time point (n=4 mice); A13 represents the parent compound A1331852 administration group, and A13bGa1 represents the prodrug obtained after the β-gal modification of A13, and mpk represents the milligram dose per kilogram of the body weight. There were three different dose groups of 2, 5, and 20 mg/kg for both A13 and A13bGa1 administration. The dashed line in the panel indicates the mean value of the platelet counts of the mice in the control single vehicle administration group.
as §3
as §2, with “The time points of administration were in the afternoon of days 0, 1, 2, 7, 8, 9, 14, 15, and 16, and the time points of blood collection and testing were in the morning of days 1, 3, 5, 8, 10, 12, 15, 17, and 19, respectively.” left out
as §4, with “For the serum biochemical analysis, the blood samples were collected, coagulated for 2 hours at room temperature or overnight at 4 °C, and then centrifuged (1000 g, 10 minutes) to obtain serum.” left out

[7] = liver microsomal metabolic stability, monkey
Method: as §5, §6, §7, §8, §9, §10, §11

[8] = single intraperitoneal administration, 2, 5, 20 mg/kg

With `Cc1c(-c2ccc(N3CCc4cccc(C(=O)Nc5nc6ccccc6s5)c4C3)nc2C(=O)O)cnn1CC12CC3CC(CC(C3)C1)C2` [Compound A13, 3-[1-(adamantan-1-ylmethyl)-5-methylpyrazol-4-yl]-6-{8-[(1,3-benzothiazol-2-yl)carbamoyl]-3,4-dihydro-1H-isoquinolin-2-yl}pyridine-2-carboxylic acid] the “status and clinical manifestations (abnormalities)” value ([1]; 5 mg/kg and 20 mg/kg, 3 consecutive weeks, FIG. 4D) was “depilated, dispirited and in poor state; also recorded: hair loss and depression”, the “mice depilated, dispirited and in poor state” value ([1]; 5 mg/kg dose group) was 2 out of 4 and the “mice depilated, dispirited and in poor state” value ([1]; 20 mg/kg dose group) was 2 out of 4. The “toxic effects on the platelets at the lowest dose” value ([2]; multiple rounds i.p., 2 mg/kg, 3 consecutive days per week, 3 weeks, FIG. 4C) was “very serious toxic effects on the platelets”, the “destructive effects on the platelets at the three doses tested” value ([2]; multiple rounds i.p., 2, 5, 20 mg/kg, FIG. 4C) was “strong destructive effects on the platelets” and the “number of the peripheral blood platelets during monitoring” value ([2]; multiple rounds i.p., FIG. 4C) was “dramatic fluctuations in the number of the peripheral blood platelets”.
In the case of `Cc1c(-c2ccc(N3CCc4cccc(C(=O)Nc5nc6ccccc6s5)c4C3)nc2C(=O)OCc2ccc(O[C@@H]3O[C@H](CO)[C@H](O)[C@H](O)[C@H]3O)c([N+](=O)[O-])c2)cnn1CC12CC3CC(CC(C3)C1)C2` [Compound A13bGa1], the “killing of the senescent cells, efficiency and selectivity” value [3] is reported as “highly efficient and selective in killing the senescent cells”, the metabolised at 2 h, 10 µM ([4]; 10 μM prodrug, read-out: The peak area after normalisation at minute 120, oxidative dehydrogenation metabolite) is reported as 0.13% and the remaining at 2 h, 10 µM ([4]; 10 μM, read-out: The peak area after normalisation at minute 120, initial drug) is reported as 99.9%. The “changes in the number of the peripheral blood platelets” value ([2]; multi-round i.p. regimen, FIG. 4C) was “relatively stable”, the “toxic side effects on the platelets” value ([2]; multi-round i.p. regimen, in contrast to A13, FIG. 4C) was “significantly reduced” and the “The hepatic extraction ratio (E)” value [5] was 0.34. For the same molecule, the “The intrinsic clearance in vitro Clint” value ([5]; 1 μM, 60 min) was 15.81 μL/min/mg protein, the “The predicted intrinsic hepatic clearance Clint” value ([5]; Fu and RB assumed to be 1) was 18.72 mL/min/kg and the CLint scaled at 1 µM ([5]; microsomes) was 28.3 mL/min/kg. The half-life at 1 h, 1 µM ([5]; microsomes) was 87.7 min, the “platelet toxicity compared with the parent compound A13” value [6, 8] was “significantly less toxic to the platelets than the parent compound A13” and the platelet-destroying effect [6, 8] was “strong platelet-destroying effect only at the higher dose of 20 mg/kg”. The “effect on the magnitude of the platelet changes in peripheral blood compared with A13” value ([6]; single intraperitoneal administration) was “significantly less than that of A13”, the “The hepatic extraction ratio (E)” value [7] was 0.69 and the “The intrinsic clearance in vitro Clint” value ([7]; 1 μM, 60 min) was 65.35 μL/min/mg protein. The “The predicted intrinsic hepatic clearance Clint” value ([7]; Fu and RB assumed to be 1) was 30.18 mL/min/kg, the CLint scaled at 1 µM ([7]; microsomes) was 98 mL/min/kg and the half-life at 1 h, 1 µM ([7]; microsomes) was 21.2 min.
